molecular target: recombinant eIF4E (Homo sapiens (Human), UniProt P06730); assay: Fluorescence polarization competition assay for eIF4E binding potency; details: inhibition of eIF4E/EDA-m7GDP-ATTO-550 binding; calculated IC50 values, Table 4B; read-out: IC50
Method in brief: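 Competitive displacement format: compounds compete with a fluorescent m7GDP tracer (20 nM) for 75 nM recombinant eIF4E. Incubation is 30 min at room temperature, protected from light, with 1% DMSO. Polarization read gives IC50 over eight 3-fold concentrations.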

Sequence of recombinant eIF4E (P06730 whole entry): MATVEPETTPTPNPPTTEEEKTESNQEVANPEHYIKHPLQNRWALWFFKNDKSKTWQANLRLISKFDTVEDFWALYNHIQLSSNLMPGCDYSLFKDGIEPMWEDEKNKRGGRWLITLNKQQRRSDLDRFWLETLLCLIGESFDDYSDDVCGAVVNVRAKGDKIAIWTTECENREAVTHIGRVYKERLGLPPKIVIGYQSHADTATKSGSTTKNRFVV

| IC50 [µM] | Structure (SMILES) |
| --- | --- |
| 0.442 | Cc1nc2cnc(N(C)C3CCN(CC(F)(F)F)CC3)c(C#N)c2c(=O)n1CC#Cc1ccc(Cl)cc1-c1ccnc2c(C(N)=O)csc12 [compound 1594] |
| 0.0548 | Cc1nc2cnc(N(C)C3CCN(CC(C)(F)F)CC3)c(C#N)c2c(=O)n1CC#Cc1ccc(Cl)cc1-c1ccnc2c(C(=O)NS(=O)(=O)CC(F)(F)F)csc12 [compound 1595] |
| 0.654 | Cc1nc2cnc(N(C)C3CCN(CC(C)(F)F)CC3)c(C#N)c2c(=O)n1CC#Cc1ccc(Cl)cc1-c1ccnc2c(C(N)=O)csc12 [compound 1596] |
| 0.0221 | Cc1nc2cnc(N(C)C3CCN(CC(F)F)CC3)c(C#N)c2c(=O)n1CC#Cc1ccc(Cl)cc1-c1ccnc2c(C(=O)NS(=O)(=O)CC(F)(F)F)csc12 [compound 1597] |
| 0.0375 | Cc1nc2cnc(N(C)C3CCN(CC(F)(F)C4(O)CCC4)CC3)c(C#N)c2c(=O)n1CC#Cc1ccc(Cl)cc1-c1ccnc2c(C(=O)O)csc12 [compound 1598] |
| 0.0203 | CCN(c1ncc2nc(C)n(CC#Cc3ccc(Cl)cc3-c3ccnc4c(C(=O)O)csc34)c(=O)c2c1C#N)C1CCN(C2CC2)CC1 [compound 1600] |
| 0.00805 | CCN(c1ncc2nc(C)n(CC#Cc3ccc(Cl)cc3-c3ccnc4c(C(=O)NS(C)(=O)=O)csc34)c(=O)c2c1C#N)C1CCN(C2CC(F)(F)C2)CC1 [compound 1601] |
| 0.00388 | Cc1nc2cnc(N(C)C3CCN([C@H]4C[C@H](F)C4)CC3)c(C#N)c2c(=O)n1CC#Cc1ccc(Cl)cc1-c1ccnc2c(C(=O)NS(C)(=O)=O)csc12 [compound 1602] |
| 0.0146 | CCN(c1ncc2nc(C)n(CC#Cc3ccc(Cl)cc3-c3ccnc4c(C(=O)NS(C)(=O)=O)csc34)c(=O)c2c1C#N)C1CCN(CC(F)(F)C(F)F)CC1 [compound 1607] |
| 0.00602 | Cc1nc2cnc(N(C)C3CCN([C@H]4C[C@@H](OC(F)(F)F)C4)CC3)c(C#N)c2c(=O)n1CC#Cc1ccc(Cl)cc1-c1ccnc2c(C(=O)NS(=O)(=O)C3COC3)csc12 [compound 1610] |
| 0.00385 | Cc1nc2cnc(N(C)C3CCN([C@H]4C[C@@H](OC(F)(F)F)C4)CC3)c(C#N)c2c(=O)n1CC#Cc1ccc(Cl)cc1-c1ccnc2c(C(=O)NS(=O)(=O)c3ccccn3)csc12 [compound 1611] |
| 0.0161 | Cc1nc2cc(C(F)(F)F)c(N3CCN(C)CC3)c(C#N)c2c(=O)n1CCOc1ccc(Cl)cc1-c1ccnc2c(P(=O)(O)O)csc12 [compound 1613] |
| 0.0147 | Cc1nc2cc(C(F)(F)F)c(N3CCN(C4CC4)CC3)c(C#N)c2c(=O)n1CCOc1ccc(Cl)cc1-c1ccnc2c(P(=O)(O)O)csc12 [compound 1615] |
| 0.0316 | Cc1cc(-c2cc(Cl)ccc2OCCn2c(C)nc3cc(C(F)(F)F)c(N(C)C)c(C#N)c3c2=O)c2scc(C(=O)O)c2n1 [compound 1619] |
| 0.0179 | COC(=O)c1csc2c(-c3cc(Cl)ccc3OCCn3c(C)nc4cnc(N(C)C5CCN(CC(F)(F)F)CC5)c(C#N)c4c3=O)ccnc12 [compound 1620] |
| 0.0721 | Cc1cc(-c2cc(Cl)ccc2OCCn2c(C)nc3c(C)nc(CN(C)C)c(C#N)c3c2=O)c2scc(C(=O)O)c2n1 [compound 1621] |
| 0.0173 | Cc1cc(-c2cc(Cl)ccc2OCCn2c(C)nc3c(C)nc(-c4c(F)cccc4F)c(C#N)c3c2=O)c2scc(C(=O)O)c2n1 [compound 1622] |
| 0.00417 | Cc1nc(N2CCN(CCF)CC2)c(C#N)c2c(=O)n(CCOc3ccc(Cl)cc3-c3ccnc4c(C(=O)O)csc34)c(C)nc12 [compound 1624] |
| 0.0303 | Cc1nc2cnc(C3=CCNCC3)c(C#N)c2c(=O)n1CCOc1ccc(Cl)cc1-c1ccnc2c(C(=O)O)csc12 [compound 1626] |
| 0.0161 | Cc1cc(-c2cc(Cl)ccc2OCCn2c(C)nc3cnc(N[N+](C)(C)C)c(C#N)c3c2=O)c2scc(C(=O)O)c2n1 [compound 1631] |
| 0.0526 | Cc1nc2cnc(N3CC4(CNC4)C3)c(C#N)c2c(=O)n1CC#Cc1ccc(Cl)cc1-c1ccnc2c(C(=O)O)csc12 [compound 1633] |
| 0.0174 | Cc1nc2cnc(N3CC4(CCN4CC(F)F)C3)c(C#N)c2c(=O)n1CCOc1ccc(Cl)cc1-c1ccnc2c(C(=O)O)csc12 [compound 1634] |
| 0.0215 | Cc1nc2cnc(N3CC4(CCN4CC(C)(C)F)C3)c(C#N)c2c(=O)n1CCOc1ccc(Cl)cc1-c1ccnc2c(C(=O)O)csc12 [compound 1635] |
| 0.0177 | Cc1nc2cnc(N3CCN(C(C)C)CC3)c(C#N)c2c(=O)n1CC#Cc1ccc(Cl)cc1-c1ccnc2c(C(=O)O)csc12 [compound 1637] |

| IC50 [µM] | Structure (SMILES) |
| --- | --- |
| 0.0388 | Cc1nc2cnc(N3CCN(C4CC4(C)C)CC3)c(C#N)c2c(=O)n1CCOc1ccc(Cl)cc1-c1ccnc2c(C(=O)O)csc12 (centres unmarked) [compound 1638] |
| 0.0189 | Cc1nc2cnc(N3CCN(C4(C)CC(F)(F)C4)CC3)c(C#N)c2c(=O)n1CCOc1ccc(Cl)cc1-c1ccnc2c(C(=O)O)csc12 [compound 1641] |
| 0.0245 | Cc1nc2cnc(N3CCN([C@H]4C[C@@H]4C(F)(F)F)CC3)c(C#N)c2c(=O)n1CCOc1ccc(Cl)cc1-c1ccnc2c(C(=O)O)csc12 [compound 1642] |
| 0.0188 | Cc1nc2cnc(N3CCN(C4(CC(F)F)CC4)CC3)c(C#N)c2c(=O)n1CCOc1ccc(Cl)cc1-c1ccnc2c(C(=O)O)csc12 [compound 1643] |
| 0.0145 | Cc1nc2cnc(N3CC[N+](CCO)(C(F)F)CC3)c(C#N)c2c(=O)n1CC#Cc1ccc(Cl)cc1-c1ccnc2c(C(=O)O)csc12 [compound 1644] |
| 0.0232 | Cc1nc2cnc(N3CC4CC3CN4C)c(C#N)c2c(=O)n1CCOc1ccc(Cl)cc1-c1ccnc2c(C(=O)O)csc12 (centres unmarked) [compound 1645] |
| 0.0263 | Cc1nc2cnc(N3CCN(C4CC4)C4(CC4)C3)c(C#N)c2c(=O)n1CCOc1ccc(Cl)cc1-c1ccnc2c(C(=O)O)csc12 [compound 1646] |
| 0.0196 | Cc1nc2cnc(N3CCC4(CC3)CCN4CC(F)F)c(C#N)c2c(=O)n1CCOc1ccc(Cl)cc1-c1ccnc2c(C(=O)O)csc12 [compound 1647] |
| 0.0183 | Cc1nc2cnc(N3CCCC4(CCN4CC(F)F)C3)c(C#N)c2c(=O)n1CCOc1ccc(Cl)cc1-c1ccnc2c(C(=O)O)csc12 (centres unmarked) [compound 1649] |
| 0.0265 | Cc1nc2cnc(N(C)C3CCN(CCF)CC3)c(C#N)c2c(=O)n1CC#Cc1ccc(Cl)cc1-c1ccnc2c(C(=O)O)csc12 [compound 1653] |
| 0.021 | Cc1nc2cnc(N(C)C3CCN(CC(C)F)CC3)c(C#N)c2c(=O)n1CCOc1ccc(Cl)cc1-c1ccnc2c(C(=O)O)csc12 (centres unmarked) [compound 1654] |
| 0.0134 | Cc1nc2cnc(N(C)C3CCN(CC(C)(C)F)CC3)c(C#N)c2c(=O)n1CCOc1ccc(Cl)cc1-c1ccnc2c(C(=O)O)csc12 [compound 1655] |
| 0.0221 | Cc1nc2cnc(N(C)C3CCN(C(C)C(F)F)CC3)c(C#N)c2c(=O)n1CCOc1ccc(Cl)cc1-c1ccnc2c(C(=O)O)csc12 (centres unmarked) [compound 1662] |
| 0.0122 | Cc1nc2cnc(N(C)C3CCN(CC(F)(F)F)CC3)c(C#N)c2c(=O)n1CC#Cc1ccc(Cl)cc1-c1ccnc2c(C(=O)NS(=O)(=O)c3cn(C)cn3)csc12 [compound 1667] |
| 0.00567 | Cc1nc2cnc(N(C)C3CCN(CC(F)(F)F)CC3)c(C#N)c2c(=O)n1CC#Cc1ccc(Cl)cc1-c1ccnc2c(C(=O)NS(=O)(=O)c3ccnn3C)csc12 [compound 1668] |
| 0.00917 | Cc1nc2cnc(N(C)C3CCN(CC(F)(F)F)CC3)c(C#N)c2c(=O)n1CC#Cc1ccc(Cl)cc1-c1ccnc2c(C(=O)NS(=O)(=O)CF)csc12 [compound 1669] |
| 0.00568 | Cc1nc2cnc(N(C)C3CCN(CC(F)(F)F)CC3)c(C#N)c2c(=O)n1CC#Cc1ccc(Cl)cc1-c1ccnc2c(C(=O)NS(=O)(=O)CC#N)csc12 [compound 1670] |
| 0.00414 | Cc1nc2cnc(N(C)C3CCN(CC(F)(F)F)CC3)c(C#N)c2c(=O)n1CC#Cc1ccc(Cl)cc1-c1ccnc2c(C(=O)NS(=O)(=O)CCC#N)csc12 [compound 1671] |
| 0.0132 | Cc1nc2c(c(=O)n1CC#Cc1ccc(Cl)cc1-c1ccnc3c(C(=O)NS(=O)(=O)CC(C)(C)C#N)csc13)C(C#N)=C(N(C)C1CCN(CC(F)(F)F)CC1)NC2 [compound 1672] |
| 0.00722 | Cc1nc2cnc(N(C)C3CCN(CC(F)(F)F)CC3)c(C#N)c2c(=O)n1CC#Cc1ccc(Cl)cc1-c1ccnc2c(C(=O)NS(=O)(=O)Cc3ccccn3)csc12 [compound 1673] |
| 0.0065 | Cc1nc2cnc(N(C)C3CCN(CC(C)(F)F)CC3)c(C#N)c2c(=O)n1CC#Cc1ccc(Cl)cc1-c1ccnc2c(C(=O)NS(=O)(=O)c3ccc(C(F)(F)F)nc3)csc12 [compound 1674] |
| 0.00411 | Cc1nc2cnc(N(C)C3CCN(CC(F)(F)F)CC3)c(C#N)c2c(=O)n1CC#Cc1ccc(Cl)cc1-c1ccnc2c(C(=O)NS(=O)(=O)c3cscn3)csc12 [compound 1675] |
| 0.00433 | Cc1nc2cnc(N(C)C3CCN(CC(C)(F)F)CC3)c(C#N)c2c(=O)n1CC#Cc1ccc(Cl)cc1-c1ccnc2c(C(=O)NS(=O)(=O)c3ccn(C)n3)csc12 [compound 1676] |
| 0.0129 | Cc1nc2cnc(N(C)C3CCN(CC(F)(F)F)CC3)c(C#N)c2c(=O)n1CC#Cc1ccc(Cl)cc1-c1ccnc2c(C(=O)NS(=O)(=O)C3CC(F)(F)C3)csc12 [compound 1677] |

| Structure (SMILES) | IC50 [µM] |
| --- | --- |
| CCOP(=O)(OCC)c1csc2c(-c3cc(Cl)ccc3OCCn3c(C)nc4cc(C(F)(F)F)c(N5CCN(C)CC5)c(C#N)c4c3=O)ccnc12 [compound 1612] | 0.0137 |
| CCOP(=O)(OCC)c1csc2c(-c3cc(Cl)ccc3OCCn3c(C)nc4cc(C(F)(F)F)c(N5CCN(C6CC6)CC5)c(C#N)c4c3=O)ccnc12 [compound 1614] | 0.0314 |
| CCOP(=O)(OCC)c1csc2c(-c3cc(Cl)ccc3OCCn3c(C)nc4cnc(N(C)C5CCN(CC(F)F)CC5)c(C#N)c4c3=O)ccnc12 [compound 1616] | 0.0115 |
| Cc1nc2cnc(N(C)C3CCN(CC(F)F)CC3)c(C#N)c2c(=O)n1CCOc1ccc(Cl)cc1-c1ccnc2c(P(=O)(O)O)csc12 [compound 1617] | 0.0156 |
| Cc1nc2cnc(N3CCC4(CC3)CN(CC(F)F)C4)c(C#N)c2c(=O)n1CC#Cc1ccc(Cl)cc1-c1ccnc2c(C(=O)NS(C)(=O)=O)csc12 [compound 1648] | 0.0133 |
